The source of these data is patent publication US11279678B2 (SHANGHAI ECUST BIOMEDICINE CO., LTD., priority 2017, dated 2022).

Data set [1] concerns Hela cervical cancer cell line. Nature of the data set: In vitro proliferation inhibition of Hela cervical cancer cell line (MTT method). The conditions noted are these: for IC50: Hela cervical cancer cell line. The class given is cell-based. The method, then:
Evaluation of In Vitro Antitumor Activity of Hela Cervical Cancer Tumor Cell Lines with Compounds (MTT Method)
The cells were cultured in RPMI1640 medium containing 200 mL/L fetal bovine serum so that the cells were kept at logarithmic growth. The cells were inoculated to 96-well plate, with a density of 4˜8×10^4/ml, 37° C., and pre-cultured for 24 hours with added drugs. The drugs were set at 6 concentrations, each has 3 holes. After 48 hours of consequent effect, the nutrient solution was then removed and the cells were left for air-drying. Each hole was then added with cold 500 g/L trichloroacetic acid (TCA) 50 μL (final concentration of 100 g/L). After setting for 60 minutes, it was then rinsed for 4-5 times with ionized water and dried. Each hole then was added with 4 g/L SRB 100 μL left for 30 mins. Then it was rinsed with 10 mL/L acetic acid for 4 times, dried. Then 10 mmol Tris-base 200 μL per hole was added, then shaked and mixed, subsequently, oscillating on the plate oscillator for 5 min. The enzyme-linked immunoassay was used to determine the A value. To calibrate, a blank control was used, with a wavelength of 490 nm. Tumor inhibition rate (%)=(Average A value of the control cell hole−Average A value of the drugged hole A)/Average A value of the control cell hole×100%. The positive control cell holes were CA4, CB1, and CB1N. To calculate the IC50 value, the Logit method was used according to the cell growth inhibition rate of different concentrations of the drug.
(In general: Tetrazolium assays rely on reduction of a dye to a coloured formazan, in cell work by metabolically active cells.)

Data set [2] relates to human gastric cancer cell MGC-803. Nature of the data set: In vitro antitumor activity on tumor cell lines (CCK-8 method), MGC-803. The data set is classed as cell-based. The conditions noted are these: MGC-803, 72 hours. The method, then:
(§1) Evaluation of In Vitro Antitumor Activity of Compounds on Multiple Tumor Cell Lines (CCK-8 Method)
(§2) Take the living cells with more than 90% cells for testing. The cell proliferation inhibition test was performed using the EnoGeneCell™ Counting Kit-8 (CK-8) cell viability test kit. The cell was digested, counted and prepared into a cell suspension with a concentration of 1×10^5/mL. 100 μL cell suspension (1×10^4 cells per hole) was added to each hole in the 96-well plate. The 96-well plate was cultured in a 37° C., 5% CO2 incubator for 24 hours. With every hole added with 100 μL respective drugged cultured medium, control groups were set up, including negative control group, solvent control group, and positive control group. Each group has 5 holes. The 96-well plates were cultured at 37° C., in 5% CO2 incubator for 72 hours. Afterward, 10 μL CCK-8 solution was added to each hole, and the culture plate was incubated in the incubator for 4 hours, and the OD value at 450 nm was determined by enzyme labeling instrument. The inhibition rate and IC50 value of these compounds on tumor cells such as human gastric cancer cell MGC-803, human liver cancer cell HepG2, human lung cancer cell A549 and human breast cancer cell MDA-MB-231 were calculated.

In data set [3] the test system is human liver cancer cell HepG2. Nature of the data set: In vitro antitumor activity on tumor cell lines (CCK-8 method), HepG2. The data set is classed as cell-based. Particulars: HepG2, 72 hours. Here is the method: as §1, §2
The subject of data set [4] is human lung cancer cell A549. Put plainly: In vitro antitumor activity on tumor cell lines (CCK-8 method), A549. The class given is cell-based. Particulars: A549, 72 hours. Here is the method:
as §1, §2

Data set [5] has as its system human breast cancer cell MDA-MB-231. Put plainly: In vitro antitumor activity on tumor cell lines (CCK-8 method), MDA-MB-231. The data set is classed as cell-based. Particulars: MDA-MB-231, 72 hours. The method, then:
as §1, §2

The conditions of data set [6]: single intragastric administration, mice.
Experimental: Acute Toxicity Test of Single Gastric Administration in Mice
Kunming mice (weight 17-22 g, equal male and female) were randomly grouped according to body weight, with 10 mice maximum per dose group in the experiment. […] Given by single intraperitoneal injection and a single intragastric injection, observations were done after 0.25 h, 0.5 h, 1 h, 2 h, 4 h, and 24 h respectively. The mortality rate was recorded. Afterward, the groups were observed once everyday, and the mortality rate was recorded for 14 days. On day 15, the living mice were sacrificed for pathological dissection.
The test system of data set [7] is gastric cancer MGC-803 transplanted tumor. Nature of the data set: Antitumor rate of oral administration in mice with MGC-803 transplanted tumor. The conditions noted are these: for Tumor inhibition rate (%): d0-d12 every 2 days, 7 times, tumor weight; for tumor size course: about 8 days after administration. The class given is in vivo. Here is the method:
Antitumor rate of oral administration of the compound towards MGC-803 mice with transplanted tumor
After 1 week of adaptation, the mice were inoculated with gastric cancer MGC-803 tumor tissue subcutaneously. After the tumor grew for 100-300 mm^3, the animals were randomly grouped. For the drug group, each group of each compound had 6 mice, and 12 mice were in the control group. The intragastric administration was employed and the dosage of Ii, Ij, Ik and Il was 25 and 50 mg/kg. The positive control was CA4, the administration time was d0, d2, d4, d6, d8, d10, d12 days, 7 times in total. The tumor size was measured 3 times per week, together with mice weight. The mice were executed 14 days after inoculation and the tumor mass was taken and measured for its weight. The tumor inhibition rate was calculated as tumor weight inhibition rate, and the formula is tumor weight inhibition rate %=(1-treatment group average tumor weight/control group average tumor weight)×100%.

[8] abbreviates: Homo sapiens, 48 hours drug exposure, read-out: IC50.
Where [9] appears, read: 48 hours drug exposure, read-out: IC50.

Read-outs that look alike come from different tables or passages of the source.

Regarding `COc1ccc(CCc2cc(OC)c(OC)c(OC)c2)cc1NC(=O)CCCn1cc(F)c(=O)[nH]c1=O` [Compound If, 4-(5-fluoro-2,4-dioxo-3,4-dihydropyrimidin-1(2H)-yl)-N-(5-(3,4,5-trimethoxyphenethyl)-2-methoxyphenyl)-butanamide], the IC50 in data set [1] (setting [8]) was determined as 0.0288 µM.

Take `COc1ccc(C=Cc2cc(OC)c(OC)c(OC)c2)cc1NC(=O)CCn1cc(F)c(=O)[nH]c1=O` [Compound Ic, 3-(5-fluoro-2,4-dioxo-3,4-dihydropyrimidin-1(2H)-yl)-N-(5-(3,4,5-trimethoxystyryl)-2-methoxyphenyl)-propanamide]: the IC50 turned out to be 0.029 µM in data set [1] (setting [8]); 48.5 µM in data set [2] (Homo sapiens); 150 µM in data set [3] (Homo sapiens); 57.9 µM in data set [4] (Homo sapiens); 122 µM in data set [5] (Homo sapiens). Also, in data set [1] (ratio to 5-fluorouracil), the “proliferation inhibitory activity on Hela compared to 5-fluorouracil” value was determined as 4 times. Besides, the “proliferation inhibitory activity on Hela compared to CA4” value in data set [1] (ratio to CA4) came out at 14 times.

Regarding `COc1ccc(/C=C\c2cc(OC)c(OC)c(OC)c2)cc1OC(=O)CCCn1cc(F)c(=O)[nH]c1=O` [Compound Im, (Z)-2-methoxy-5-(3,4,5-trimethoxystyryl)-phenyl-4-(5-fluoro-2,4-dioxo-3,4-dihydropyrimidin-1(2H)-yl)butanoate], in data set [1] (setting [8]), the IC50 stood at 0.03 µM.

Consider `COc1ccc(CCc2cc(OC)c(OC)c(OC)c2)cc1NC(=O)Cn1cc(F)c(=O)[nH]c1=O` [Compound Ib, 2-(5-fluoro-2,4-dioxo-3,4-dihydropyrimidin-1(2H)-yl)-N-(5-(3,4,5-trimethoxyphenethyl)-2-methoxyphenyl)-acetamide], for which the IC50 in data set [1] (setting [8]) is 0.0291 µM; in data set [2] (Homo sapiens) it was 1.86 µM; in data set [3] (Homo sapiens) it was below 0.19 µM; in data set [4] (Homo sapiens) it was below 0.19 µM; in data set [5] (Homo sapiens) it was 3.21 µM.

On to `CCOc1ccc(CCc2cc(OC)c(OC)c(OC)c2)cc1NC(=O)CCn1cc(F)c(=O)[nH]c1=O` [Compound Ih, N-(5-(3,4,5-trimethoxyphenethyl)-2-ethoxyphenyl)-3-(5-fluoro-2,4-dioxo-3,4-dihydropyrimidin-1(2H)-yl)propanamide], for which the IC50 in data set [1] (setting [8]) was above 0.37 µM; in data set [2] (Homo sapiens), 23.2 µM; in data set [3] (Homo sapiens) it was 171 µM; in data set [4] (Homo sapiens), 15.2 µM; in data set [5] (Homo sapiens) it was 60.6 µM.

With `CCOc1ccc(CCc2cc(OC)c(OC)c(OC)c2)cc1OC(=O)Cn1cc(F)c(=O)[nH]c1=O` [Compound In, 5-(3,4,5-trimethoxyphenethyl)-2-ethoxyphenyl 2-(5-fluoro-2,4-dioxo-3,4-dihydropyrimidin-1(2H)-yl)acetate], the IC50 came out at 0.04 µM in data set [1] (setting [8]); 19.3 µM in data set [2] (Homo sapiens); 468 µM in data set [3] (Homo sapiens); 4.26 µM in data set [4] (Homo sapiens); 102 µM in data set [5] (Homo sapiens).

For `COc1ccc(CCc2cc(OC)c(OC)c(OC)c2)cc1O` [Erianin, reference compound], the “LD50” value in data set [6] worked out at 2531 mg/kg.

For the compound `COc1ccc(C=Cc2cc(OC)c(OC)c(OC)c2)cc1NC(=O)CCCn1cc(F)c(=O)[nH]c1=O` [Compound Ie, 4-(5-fluoro-2,4-dioxo-3,4-dihydropyrimidin-1(2H)-yl)-N-(5-(3,4,5-trimethoxystyryl)-2-methoxyphenyl)-butanamide], in data set [1] (setting [8]), the IC50 was 0.0688 µM.

`COc1ccc(/C=C\c2cc(OC)c(OC)c(OC)c2)cc1OC(=O)Cn1cc(F)c(=O)[nH]c1=O` [Compound Ii, (Z)-2-methoxy-5-(3,4,5-trimethoxystyryl)-phenyl-2-(5-fluoro-2,4-dioxo-3,4-dihydropyrimidin-1(2H)-yl)acetate]: the IC50 in data set [1] (setting [9]) was 0.0314 µM; in data set [2], below 0.0003 µM; in data set [3] it was 0.0228 µM; in data set [4] it was below 0.0003 µM; in data set [5], 0.4 µM. Further, the “Tumor inhibition rate (%)” value came to 62% in data set [7] (25 mg/kg intragastric) and 85% in data set [7] (50 mg/kg intragastric). Also, the tumor size course result in data set [7] is “tendency to shrink”. For the same compound, in data set [6], the “LD50” value amounted to 1059 mg/kg.

As for `CCOc1ccc(CCc2cc(OC)c(OC)c(OC)c2)cc1OC(=O)CCn1cc(F)c(=O)[nH]c1=O` [Compound Io, 5-(3,4,5-trimethoxyphenethyl)-2-ethoxyphenyl-3-(5-fluoro-2,4-dioxo-3,4-dihydropyrimidin-1(2H)-yl)propanoate], the IC50 in data set [1] (setting [8]) is 0.0343 µM; in data set [2] (Homo sapiens), 0.609 µM; in data set [3] (Homo sapiens) it was 0.0017 µM; in data set [4] (Homo sapiens) it was 0.0003 µM; in data set [5] (Homo sapiens) it was 2.57 µM.

In the case of `O=c1[nH]cc(F)c(=O)[nH]1` [Compound 5-FU, 5-fluorouracil, reference compound], the IC50 in data set [1] (setting [8]) turned out to be 0.113 µM; in data set [1] (Homo sapiens, read-out: IC50 values, Hela proliferation inhibition), 0.113 µM; in data set [2] (Homo sapiens), 62.5 µM; in data set [3] (Homo sapiens), 0.004 µM; in data set [4] (Homo sapiens) it was 34.9 µM; in data set [5] (Homo sapiens), 97 µM.

On to `CCOc1ccc(CCc2cc(OC)c(OC)c(OC)c2)cc1NC(=O)Cn1cc(F)c(=O)[nH]c1=O` [Compound Ig, N-(5-(3,4,5-trimethoxyphenethyl)-2-ethoxyphenyl)-2-(5-fluoro-2,4-dioxo-3,4-dihydropyrimidin-1(2H)-yl)acetamide], for which the IC50 was 0.0471 µM in data set [1] (setting [8]); 25.8 µM in data set [2] (Homo sapiens); 39.4 µM in data set [3] (Homo sapiens); 59.9 µM in data set [4] (Homo sapiens); 60.2 µM in data set [5] (Homo sapiens).

On to `COc1ccc(CCc2cc(OC)c(OC)c(OC)c2)cc1OC(=O)Cn1cc(F)c(=O)[nH]c1=O` [Compound Ij, 2-methoxy-5-(3,4,5-trimethoxyphenethyl)-phenyl-2-(5-fluoro-2,4-dioxo-3,4-dihydropyrimidin-1(2H)-yl)acetate], for which the IC50 in data set [1] (setting [9]) is 0.0323 µM; in data set [2], below 0.0003 µM; in data set [3] it was 0.141 µM; in data set [4] it was below 0.0003 µM; in data set [5], 15.4 µM. In addition, the entries for the “Tumor inhibition rate (%)” value in data set [7] (25 mg/kg intragastric) and in data set [7] (50 mg/kg intragastric) were 53% and 80%, respectively. Further, in data set [7], the tumor size course result was “tendency to shrink”. In data set [6], the “LD50” value amounted to 1015 mg/kg.

Consider `COc1ccc(CCc2cc(OC)c(OC)c(OC)c2)cc1NC(=O)CCn1cc(F)c(=O)[nH]c1=O` [Compound Id, 3-(5-fluoro-2,4-dioxo-3,4-dihydropyrimidin-1(2H)-yl) N-(5-(3,4,5-trimethoxyphenethyl)-2-methoxyphenyl)-propanamide], for which the IC50 in data set [1] (setting [9]) was found to be 0.0298 µM; in data set [2], 50.6 µM; in data set [3], 110 µM; in data set [4], 38 µM; in data set [5] it was 70.2 µM.

As for `COc1ccc(/C=C\c2cc(OC)c(OC)c(OC)c2)cc1NC(=O)Cn1cc(F)c(=O)[nH]c1=O` [Compound Ia, (Z)-2-(5-fluoro-2,4-dioxo-3,4-dihydropyrimidin-1(2H)-yl)-N-(2-methoxy-5-(3,4,5-trimethoxystyryl)-phenyl)acetamide], the IC50 in data set [1] (setting [8]) amounted to 0.046 µM; in data set [2] (Homo sapiens), 64.2 µM; in data set [3] (Homo sapiens), 0.0124 µM; in data set [4] (Homo sapiens), 27.5 µM; in data set [5] (Homo sapiens) it was 112 µM.

The LD50 is the dose at which mortality reaches 50%. The low end stands for a more toxic substance, the high end for a less toxic substance.
